In paper PMC5671725, “Fluorinated Adenosine A2A Receptor Antagonists Inspired by Preladenant as Potential Cancer Immunotherapeutics” (International Journal of Medicinal Chemistry, 2017):
Values after ≈ are worked out from the molar mass of the structure shown.

Tests used:
CL8-1 melanoma = test system: CL8-1 melanoma; design: method as in PMID 18163162, PMID 17404693, PMID 18404426, PMID 18311159, PMID 19201652; conditions: mice; cited from earlier work
A2AR [1] = target: T1, A2AR (Mus musculus, UniProt Q60613); design: endogenous in cells; method as in PMID 24126093; conditions: compared with xanthine 2; cited from earlier work
A2AR [2] = target: T1, A2AR; design: endogenous in cells; host or cells: primary lymphocytes from the spleen of C57/BL6 mice; method as in PMID 24126093; conditions: compared with xanthine 2; cited from earlier work
A2ARs = target: T2, A2ARs (Mus musculus, UniProt Q60613); experiment: Concanavalin A (ConA)-induced liver damage assay; assay type: in vivo; conditions: female C57BL/6 mice, 2 mg kg^-1 compound then Con A 20 mg kg^-1, evaluated at 8 h
T2 construct: from tissue; host or cells: whole animal, female C57BL/6 mice (in vivo)
Experimental: To select lead compounds for immunotherapy application, an in vivo Concanavalin A (ConA)-induced liver damage assay was carried out in C57BL/6 mice through the pharmacological activation and deactivation of A2ARs. A variety of compounds were screened including 2, 3, and 4 [10, 18, 19]. […] Fluorinated analogs were envisioned to potentially serve as leads to ultimately be labeled at the distal position with fluorine-18 (t1/2 = 109.8 min), for diagnostic imaging with positron emission tomography (PET). A series of fluorinated PEG groups with increasing chain lengths were proposed for chemical modification to map the structure-activity relationship (SAR). Such modifications increase both hydrophilicity and molecular weight (MW), potentially to reduce blood-brain barrier (BBB) penetration as predicted by the central nervous system multiparameter optimization (MPO) score reported by Wager et al..
Figure 2 ConA-induced liver damage in C57BL/6 mice via CGS (6), 2, 3 and 4. Female C57BL/6 mice (n = 5) were first injected with A2AR agonist CGS (6, 2 mg kg^−1), 2 mg kg^−1 2, 3, and 4 separately, and then Con A (20 mg kg^−1). Con A-induced liver damage evaluated at 8 h.

[3] = design: method as in PMID 24164628, PMID 25311639, PMID 25174927; conditions: Parkinson's disease; cited from earlier work
A2AR [4] = target: T1, A2AR; experiment: Cytokine release assay: IFN-gamma secretion by anti-CD3 activated splenocytes treated with CGS; assay type: cell-based, C57BL/6 mice; design: endogenous in cells; conditions: 0.1 µg/mL anti-CD3, 1 µM CGS plus 1 µM compound, one day, ELISA
Experimental: The second immunoassay assesses secretion of the cytokine IFN-gamma, since it is considered to be sensitive to the A2AR signaling pathway. In these assays, during T cell receptor (TCR) activation by the CD3 ligand, C57BL/6 mice splenocytes T cells are incubated with A2AR agonist CGS to inhibit IFN-gamma secretion resulting from A2AR-induced immunosuppression via intracellular cAMP. Effective A2AR antagonists block the A2AR-activated signal, thus restoring secretion of the cytokine to potentiate and prolong the immune response.
Figure 6 The IFN-gamma production by splenocytes after activation with 0.1 µg/mL anti-CD3 and when treated with vehicle, 1 µM CGS, and 1 µM CGS plus 1 µM compounds 29, 2 (KW-6002), 3 (KW-PEG), and 4 (preladenant) separately is shown. The IFN-gamma levels were determined in the supernatant one day following stimulation using quantitative ELISA and are expressed as pg/mL. Data shown represent mean ± SEM of triplicate samples.
(§1) Measuring functionality of A2AR antagonism by cAMP assay
Stimulation of intracellular cAMP production and measurement of cAMP levels were performed as described previously.[18b] […] Levels of cAMP were determined by ELISA (Amersham Biosciences, Buckinghamshire, UK). […]

A2AR [5] = target: T1, A2AR; experiment: Inhibition of A2AR-induced (CGS21680) intracellular cAMP accumulation in lymphocytes; assay type: cell-based, C57/BL6 mice; design: endogenous in cells; host or cells: primary lymphocytes from the spleen of C57/BL6 mice; conditions: 1 µM CGS plus 1 μM compound, 15 min, cAMP ELISA
Experimental: Bioassay of compounds 27–31 and 40 and their parent compounds (4 and 5a) was conducted using two functional assays that evaluate A2AR binding-dependent signaling through A2AR on the surface of T cells. The first assay screens compounds on the basis of their extent of inhibition of A2AR-induced intracellular cAMP accumulation in A2AR expressing lymphocytes. The A2AR agonist, CGS21680 (CGS, 6), was used to activate A2AR.
Figure 4 Intracellular cAMP levels in lymphocytes after incubation with vehicle, 1 µM CGS, and 1 µM CGS plus 1 μM of compounds 4 (preladenant), 27–31, 5a (tozadenant), 40, 2 (KW-6002), and 3 (KW-PEG) are shown. The intracellular cAMP levels were determined 15 min following stimulation using quantitative cAMP ELISA and are expressed as fmol/10^6 cells. Data shown represent mean ± SEM of triplicate samples.
as §1
Stimulation of intracellular cAMP production and measurement of cAMP levels were performed as described previously.[18b] Lymphocytes were isolated from the spleen of C57/BL6 mice and suspended at a concentration of 400,000 cells/well, and then treated with 1 µM CGS 21680 6 (A2AR-specific agonist; from Tocris, Ellisville, MO) with or without KW-6002 2, KW-PEG 3, preladenant 4, tozadenant 5a and their PEGylated analogs 27-31 and 40 (at a concentration of […]). The cells were incubated for 15 min at 37 °C , and the reaction was stopped by addition of 1 N hydrochloric acid. Levels of cAMP were determined by ELISA (Amersham Biosciences, Buckinghamshire, UK). All treatment groups were performed in triplicate. […]

[6] = Log D7.4 shake-flask octanol-water; assay type: physicochemical; conditions: octanol / 10 mM sodium phosphate pH 7.4, read-out: logD7.4
Experimental: Determination of Physicochemical Properties […]
A shake-flask method was employed to determine octanol-water distribution coefficients at pH
7.4 (Log D7.4). The aqueous solution used was 10 mM sodium phosphate pH 7.4 buffer. The
method was validated for Log D7.4 ranging from -2 to 5.0. […]

[7] = Aqueous pH 7.4 solubility; assay type: physicochemical; conditions: aqueous buffer, thermodynamic from solid; 0.1 M phosphate buffer pH 7.4, 25°C, 20-24 hours
Experimental: (§2) Determination of Physicochemical Properties
(§3) Aqueous pH 7.4 Solubility
(§4) Compounds were dried down from 10 mM DMSO solutions using centrifugal evaporation techniques. Phosphate buffer (0.1 M pH 7.4) was added and StirStix inserted in the glass vials.
Agitation was then performed at a constant temperature of 25°C for 20 -24 hours. The vials were then subjected to double centrifugation (with a tip wash in between) to eliminate any residues of the dried compound. The solutions were then diluted and quantitated using LC/MS/MS. […]

[8] = Human plasma protein binding (equilibrium dialysis, RED device); assay type: in vitro ADME; conditions: pH 7.4, 10 µM initial concentration, 37°C, read-out: Human PPB (converted)
Experimental: Figure S1. Docking results of compounds 27-29 via Glide XP method. The H-bond interaction is represented as a pink arrow, pi-pi stacking as a green arrow. (A) Compound 27 docking pattern. (B) Compound 28 docking pose. (C) Compound 29 docking result. Pictures are rendered […]
as §2, §3, §4
Agitation was then performed at a constant temperature of 25°C for 20 -24 hours. The vials were then subjected to double centrifugation (with a tip wash in between) to eliminate any residues of the dried compound. The solutions were then diluted and quantitated using LC/MS/MS.
A shake-flask method was employed to determine octanol-water distribution coefficients at pH 7.4 (Log D7.4). The aqueous solution used was 10 mM sodium phosphate pH 7.4 buffer. The method was validated for Log D7.4 ranging from -2 to 5.0.
Human Plasma Protein Binding (PPB)
PPB was determined using equilibrium dialysis (RED device) to separate free from bound compound. The amount of compound in plasma (10 µM initial concentration) and in dialysis […]
(§5) buffer (pH 7.4 phosphate buffer) was measured by LC-MS/MS after equilibration at 37°C in a dialysis chamber. The fraction unbound (fu) is reported.
(§6) In vitro intrinsic clearance was determined from human liver microsomes or rat hepatocytes using standard methods. Following incubation and preparation, the samples were analyzed using […]
(§7) µl/min/mg or µl/min/1 million cells.

[9] = Intrinsic clearance in human liver microsomes; assay type: in vitro ADME; conditions: read-out: HLM CLint
Experimental: as §5, §6, §7

[10] = Intrinsic clearance in rat hepatocytes; assay type: in vitro ADME
Experimental: as §5, §6, §7

T1 sequence (Q60613 whole entry): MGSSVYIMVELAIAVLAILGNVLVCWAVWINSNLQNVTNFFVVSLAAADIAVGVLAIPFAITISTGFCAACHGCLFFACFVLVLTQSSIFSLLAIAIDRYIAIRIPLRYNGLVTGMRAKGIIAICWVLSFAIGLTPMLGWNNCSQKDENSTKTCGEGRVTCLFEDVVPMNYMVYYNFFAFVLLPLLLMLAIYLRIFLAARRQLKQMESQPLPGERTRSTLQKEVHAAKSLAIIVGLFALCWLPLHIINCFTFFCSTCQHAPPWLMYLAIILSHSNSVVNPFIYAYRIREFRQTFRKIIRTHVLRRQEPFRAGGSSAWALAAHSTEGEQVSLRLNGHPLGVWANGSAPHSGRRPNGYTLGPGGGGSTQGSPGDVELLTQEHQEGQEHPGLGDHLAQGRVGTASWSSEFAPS
T2 sequence (Q60613 whole entry): as above

| SMILES | Antagonism of CGS-mediated intracellular cAMP accumulation (A2AR [5]) | logD [6] | solubility [7] [µM] | fraction unbound at 10 µM [8] | microsomal CLint [9] [µL/min/mg] | Rat hepatocyte CLint [10] [μL/min/10^6] | other results |
| --- | --- | --- | --- | --- | --- | --- | --- |
| Nc1nc(NCCc2ccc(O)cc2)nc2nc(-c3ccco3)nn12 [Compound 1, ZM241385] |  |  |  |  |  |  | Growth of CL8-1 melanoma (CL8-1 melanoma): delayed growth of CL8-1 melanoma in mice; Levels of endogenous antitumor T cells (CL8-1 melanoma): increased levels of endogenous antitumor T cells |
| CCn1c(=O)c2c(nc(/C=C/c3ccc(C(=O)OCCOCCOCCOCCOCCOCCOCCOCCOC)c(OC)c3)n2C)n(CC)c1=O [Compound 3] |  |  |  |  |  |  | Cytokine IFN-gamma restoration (A2AR [1]): enhanced properties; cAMP suppression (A2AR [2]): enhanced properties |
| COCCOc1ccc(N2CCN(CCn3ncc4c3nc(N)n3nc(-c5ccco5)nc43)CC2)cc1 [Compound 4, preladenant] |  |  |  |  |  |  | ConA-induced liver damage (A2ARs): most severe immune induced liver damage; Efficacy in Phase III trials [3]: failed to show efficacy; Restoration of IFN-gamma secretion (A2AR [4]): superior restoration of IFN-gamma secretion compared to either 2 or 3 |
| COc1ccc(N2CCOCC2)c2sc(NC(=O)N3CCC(C)(O)CC3)nc12 [Compound 5a, tozadenant, reference compound] | inferior antagonism to that of compounds 2 and 3 |  |  |  |  |  |  |
| Nc1nc2c(cnn2CCN2CCN(c3ccc(OCCF)cc3)CC2)c2nc(-c3ccco3)nn12 [Compound 27] |  | 2.8 | 74 (≈ 36.4 µg/mL) | 0.01 | 16.5 | 29.9 |  |
| Nc1nc2c(cnn2CCN2CCN(c3ccc(OCCOCCF)cc3)CC2)c2nc(-c3ccco3)nn12 [Compound 28] |  | 2.5 | 2 (≈ 1.07 µg/mL) | 0.013 | 71.9 | 12.8 |  |
| Nc1nc2c(cnn2CCN2CCN(c3ccc(OCCOCCOCCF)cc3)CC2)c2nc(-c3ccco3)nn12 [Compound 29] |  | 2.3 | 10 (≈ 5.8 µg/mL) | 0.017 | 66.1 | 72.9 | Restoration of IFN-gamma secretion (A2AR [4]): superior restoration of IFN-gamma secretion compared to either 2 or 3 |
| Nc1nc2c(cnn2CCN2CCN(c3ccc(OCCOCCOCCOCCOCCOCCF)cc3)CC2)c2nc(-c3ccco3)nn12 [Compound 30] | decreased antagonism |  |  |  |  |  |  |
| COCCOCCOCCOCCOCCOCCOCCOCCOc1ccc(N2CCN(CCn3ncc4c3nc(N)n3nc(-c5ccco5)nc43)CC2)cc1 [Compound 31] | decreased antagonism |  |  |  |  |  |  |
| COCCOCCOCCOCCOCCOCCOCCOCCOc1ccc(N2CCN(C(=O)Nc3nc4c(OC)ccc(N5CCOCC5)c4s3)CC2)cc1 [Compound 40] | no suppression of intracellular cAMP accumulation |  |  |  |  |  |  |
